Source: patent US12310985B2, “Composition and method for treatment of diabetes” (SHENZHEN PROFOUND VIEW PHARMACEUTICAL TECHNOLOGY, priority 2020, dated 2025)
Structures can show the parent of a compound that is named as a salt.

Columns and labels:
Format in all cases: in vivo
[1] = test system: C57BL/6 male mice, high energy feed + STZ diabetic model; test: Fasting blood glucose index
Experimental: (§1) After each group was given a maintenance feed for 1 week, except for the negative control group, the other groups were replaced with the high energy feed from 3.1.7.1. After 3 weeks of feeding, each group was fasted for 24 h. Except for the negative control group, the other groups were intraperitoneally injected with 5 mg/mL STZ solution at a dose of 20 mL/kg bodyweight. All groups were fed for 4 days. Fasting blood glucose and glucose tolerance were measured on the 5th day, and the test was terminated the next day.
(§2) From the feeding of the maintenance feed, the sample group was intraperitoneally injected with the test sample solution once per day at 20 mL/kg bodyweight, the negative control group and the model control group were intraperitoneally injected with sodium chloride solution, and the positive control group was intragastrically administered with pioglitazone hydrochloride solution at a dose of 20 mL/kg bodyweight for 34 days until the end of the test. On the day of injection of STZ, each group was administered 4 h after STZ injection.
On the 5th day after intraperitoneal injection of STZ, the mice in each group were fasted for about 5 hours with water provided. After measuring the fasting blood glucose level (0 h), the sample group and positive control group were intraperitoneally injected with the corresponding drugs. The negative control group and the model control group were intraperitoneally injected with sodium chloride solution. After 20 minutes, each group was intragastrically administered with 0.125 g/mL glucose solution at 20 mL/kg bodyweight, and the blood glucose level was measured at 0.5, 1, 1.5, 2 h after the administration of the glucose solution. On the next day, the mice in each group were fasted for 5 h after the administration. The mice were anesthetized with 3% sodium pentobarbital solution in an amount of 10 mL/kg bodyweight, and sacrificed after collecting the eyeballs and bloods. The blood samples were centrifuged at 3000 r/min for 10 min, and the sera were collected for the detection of serum insulin, triglycerides, and total cholesterol. […]

[2] = Body weight of mice during experiments (high energy feed + STZ diabetic model); settings: Sample 10 mg/kg i.p., Positive control 22.5 mg/kg intragastric, 1 time/day
From the text: 3.2.1 C57BL/6 mice are more commonly used in diabetes tests. 90 C57BL/6 male mice (SPF level) with a body weight of 18.8-24.2 g at the beginning of the experiment were purchased from Guangdong Medical Laboratory Animal Center (Experimental Animal Production License No. SCXK (Yue) 2018-0002; Animal Certificate No. 44007200059759);
as §1, §2
Weighed at the beginning of the trial, at the end of the trial, and once a week during the trial.

[3] = test system: C57BL/6 male mice, high energy feed + STZ diabetic model; test: Glucose tolerance index; settings: Sample 10 mg/kg, Positive control 22.5 mg/kg
Experimental: as §1, §2
On the 5th day after intraperitoneal injection of STZ, the mice in each group were fasted for about 5 hours with water provided. After measuring the fasting blood glucose level (0 h), the sample group and positive control group were intraperitoneally injected with the corresponding drugs. The negative control group and the model control group were intraperitoneally injected with sodium chloride solution. After 20 minutes, each group was intragastrically administered with 0.125 g/mL glucose solution at 20 mL/kg bodyweight, and the blood glucose level was measured at 0.5, 1, 1.5, 2 h after the administration of the glucose solution. On the next day, the mice in each group were fasted for 5 h after the administration. The mice were anesthetized with 3% sodium pentobarbital solution in an amount of 10 mL/kg bodyweight, and sacrificed after collecting the eyeballs and bloods. The blood samples were centrifuged at 3000 r/min for 10 min, and the sera were collected for the detection of serum insulin, triglycerides, and total cholesterol. At the same time, the pancreas of each animal was collected. Six animals in each group were fixed with 10% paraformaldehyde for HE staining and insulin immunohistochemical staining in pancreas. The remaining 6 animals were preserved at −80° C. for insulin content determination.
Calculate the area under the blood glucose curve at 0, 0.5, 1, 1.5, 2 h after glucose administration. The formula is as follows:
Area under the blood glucose curve: [(0 h blood glucose+0.5 h blood glucose)×0.5]/2+[(0.5 h blood glucose+1 h blood glucose)×0.5]/2+[(1 h blood glucose+1.5 h) Blood glucose level)×0.5]/2+[(1.5 h blood glucose level+2 h blood glucose value)×0.5]/2.

[4] = test system: C57BL/6 male mice, high energy feed + STZ diabetic model; test: Pancreatic insulin content (ELISA); settings: end of experiment, Sample 10 mg/kg, Positive control 22.5 mg/kg
Experimental: as §1
as §2, with “On the day of injection of STZ, each group was administered 4 h after STZ injection.” left out
(§3) On the 5th day after intraperitoneal injection of STZ, the mice in each group were fasted for about 5 hours with water provided. […] After 20 minutes, each group was intragastrically administered with 0.125 g/mL glucose solution at 20 mL/kg bodyweight, and the blood glucose level was measured at 0.5, 1, 1.5, 2 h after the administration of the glucose solution. […]

[5] = test system: C57BL/6 male mice, high energy feed + STZ diabetic model; test: Serum insulin content; settings: end of experiment; Sample 10 mg/kg, Positive control 22.5 mg/kg
Experimental: as §1, with “day. […]” for “day.”
as §3
(§4) At the end of the experiment, serum was collected for assaying serum insulin, triglycerides, and total cholesterol. The insulin resistance index was calculated.

[6] = test system: C57BL/6 male mice, high energy feed + STZ diabetic model; test: Serum cholesterol (TC) and triglyceride (TG) content; settings: serum at end of experiment; Sample 10 mg/kg, Positive control 22.5 mg/kg
Experimental: as §1, with “day. […]” for “day.”
as §3, §4

In the case of CCc1ccc(CCOc2ccc(CC3SC(=O)NC3=O)cc2)nc1 (stereo not shown) [Positive control, Pioglitazone hydrochloride], the “Fasting blood glucose index, Post experiment” value ([1]; 5th day after STZ, fasting about 5 h, Sample 10 mg/kg i.p., Positive control 22.5 mg/kg intragastric, 1 time/day) is reported as 13.8 ± 2.8 mmol/L, the “Decrease percentage of blood glucose” value ([1]; (prior − post)/prior × 100%, Sample 10 mg/kg i.p., Positive control 22.5 mg/kg intragastric) is reported as −21.8 ± 39.0% and the “Fasting blood glucose index, Prior to Experiment” value ([1]; prior to experiment (baseline), fasting about 5 h) is reported as 12.0 ± 2.6 mmol/L. The Bodyweight ([2]; d 2) was 22.2 ± 1.2 g, the Bodyweight ([2]; d 9) was 23.0 ± 1.3 g and the Bodyweight ([2]; d 16) was 24.2 ± 1.2 g. The Bodyweight ([2]; d 23) was 25.6 ± 1.5 g, the Bodyweight ([2]; d 29) was 26.2 ± 1.6 g and the Bodyweight ([2]; d 32) was 26.0 ± 1.4 g. The Bodyweight ([2]; d 35) was 25.8 ± 1.3 g, the “Glucose tolerance index, blood glucose” value ([3]; 0 h, 5th day after STZ) was 13.8 ± 2.8 mmol/L and the “Glucose tolerance index, blood glucose” value ([3]; 0.5 h after glucose administration) was 30.1 ± 5.4 mmol/L. For the same molecule, the “Glucose tolerance index, blood glucose” value ([3]; 1 h after glucose administration) was 26.9 ± 7.0 mmol/L, the “Glucose tolerance index, blood glucose” value ([3]; 1.5 h after glucose administration) was 20.7 ± 6.2 mmol/L and the “Glucose tolerance index, blood glucose” value ([3]; 2 h after glucose administration) was 17.9 ± 6.3 mmol/L. It also gave a pancreatic insulin content [4] of 8.4 ± 3.0 mIU/mL, a serum insulin content [5] of 28.2 ± 3.6 mIU/mL and a TC [6] of 4.76 ± 0.56 mmol/L. The TG [6] was 0.76 ± 0.14 mmol/L.
